Results taken from BigSolDB 2.1.

CO[C@@]1(NC(=O)Cc2cccs2)C(=O)N2C(C(=O)O)=C(COC(N)=O)CS[C@@H]21
solubility (mole fraction)
Conditions | 278.15 K | 283.15 K | 288.15 K | 293.15 K | 298.15 K | 303.15 K | 308.15 K
in acetonitrile | 0.000452 | 0.000491 | 0.000528 | 0.00058 | 0.000621 | 0.000677 | 0.00076
in ethanol | 0.000403 | 0.000484 | 0.000603 | 0.000739 | 0.000852 | 0.00103 | 0.00118
in ethyl acetate | 0.000229 | 0.000241 | 0.000257 | 0.000267 | 0.000282 | 0.000296 | 0.00032
in isopropanol | 4.4e-05 | 7.19e-05 | 0.000109 | 0.000151 | 0.000186 | 0.000243 | 0.000314
in methanol | 0.00565 | 0.00658 | 0.00772 | 0.00919 | 0.011 | 0.0129 | 0.0149
in n-propanol | 0.000209 | 0.000253 | 0.000286 | 0.000338 | 0.000394 | 0.000492 | 0.000561
